From PMC8486872, “A rational blueprint for the design of chemically-controlled protein switches” (Nature Communications, 2021)
“And” between values parts separate entries of the source, which are not always exact repeats. Equal entries are not always repeated.

Key:
[1] = system: SEAP and Luciferase expression in HEK293T cells; experiment: SIMO designer cells (AIR-1/2-GEMS + CDH-1/2-TF); assay type: cell-based; set-up: Bottom (best-fit value) / Top (best-fit value) / Span (best-fit value): unit not given here; conditions: for logIC50 (best-fit value): drug in nM
From the text: Fig. 5 Orthogonal chemical switches enable implementation of multi-input multi-output control modes in mammalian cells. a Scheme of multi-inputs multi-outputs (MIMO) designer cells where two drugs control two different outputs. b, c Cells were co-transfected with AIR-1/2-GEMS and CDH-3-TF regulate SEAP and Luciferase expression, respectively. […] AIR-1/2-GEMS coupled with SEAP expression circuits were co-transfected with CDH-1/2-TF circuits which control the Luciferase production. Respective drug concentrations ranged from 0.001 nM to 1 µM. All values presented are mean ± s.d. of three replicates and curves were fitted by four-parameters nonlinear regression. b, c, e, f, h, i Source data are available in the source data file.
Finally, we engineered SIMO cells (Fig. 5g) using two designed switches that produce ON and OFF responses upon exposure to the same drug. We transfected cells with combinations of AIR-GEMS and CDH-TFs which controlled the expression of the reporter proteins SEAP and Luciferase, respectively. […] Therefore, computational design expanded the repertoire of protein switches controlled by the same compounds that can be used to simultaneous turn ON and OFF synergistic outputs. […]
AIR-1-GEMS coupled with SEAP expression circuits (i) and CDH-1-TF circuits which control the Luciferase production (j). j-k) Quantification of SEAP and Luciferase activities under Drug-2. AIR-2-GEMS coupled with SEAP expression circuits (k) and CDH-2-TF circuits which control the Luciferase production (l). b-k) Each data point represents the mean of n = 3 biological replicates, and the dose-dependent curve were fitted using four-parameter nonlinear regression.

[2] = target: T1, LD3 in the presence of Drug-1 (Homo sapiens, UniProt Q07817, DEL45-84/F105I/R102E); experiment: SPR pre-screening and competition of Drug-1 resistant Bcl-XL mutants binding LD3; conditions: Fig S10d
T1 construct: 6xHis (N); made in house; host or cells: E. coli BL21(DE3)
Procedure: Supplementary Figure 10: Biophysical and cellular characterization of designed Drug-1- […]
a) Pre-screening of Drug-1 resistant Bcl-XL mutants by SPR. 5 µM of Bcl-XL and five mutants were mixed with 10 µM of Drug-1 and injected over the LD3 immobilized chip to analyse the binding response. […]
dilutions of Drug-1 were pre-mixed with 4 µM LD3 and injected over iBcl-XL_v3 immobilized chip to collect the response. c) Dissociation constant measurement of iBcl-XL_v3 and LD3. Sensorgrams are in black dashed curves and the fitted curves in solid red lines. Kd was using a 1:1 binding model. d) […]
normalized to the positive control (DMSO group). […]

[3] = Fig S13i, CDH-1-TF control Luciferase expression only, Drug-1 0.01 nM
[4] = Fig S13i, CDH-1-TF control Luciferase expression only, Drug-1 10 nM
[5] = Fig S13i, CDH-1-TF control Luciferase expression only, Drug-1 31.6 nM
[6] = Fig S13i, CDH-1-TF control Luciferase expression only, Drug-1 100 nM
[7] = Fig S13i, CDH-1-TF control Luciferase expression only, Drug-1 316 nM
[8] = Fig S13h, AIR-1-GEMS control SEAP expression only, Drug-1 0.01 nM
[9] = Fig S13h, AIR-1-GEMS control SEAP expression only, Drug-1 0.1 nM
[10] = Fig S13h, AIR-1-GEMS control SEAP expression only, Drug-1 1 nM
[11] = Fig S13h, AIR-1-GEMS control SEAP expression only, Drug-1 316 nM
[12] = sheet Figure5h, Luciferase, four-parameter fit
[13] = sheet Figure5h, SEAP, four-parameter fit

T1 sequence (Q07817 with tags, fused parts or gaps DEL45-84/R102E/F105I limits assumed): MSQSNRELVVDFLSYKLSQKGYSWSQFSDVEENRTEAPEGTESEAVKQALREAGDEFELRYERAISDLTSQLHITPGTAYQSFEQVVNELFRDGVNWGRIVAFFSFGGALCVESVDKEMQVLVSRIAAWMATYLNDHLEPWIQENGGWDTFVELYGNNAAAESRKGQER

CN(C)CC#Cc1ccc(OCCCc2sc(N3CCc4cccc(C(=O)Nc5nc6ccccc6s5)c4C3)nc2C(=O)O)c(F)c1 [Drug-1, A-1155463]
SEAP and Luciferase outputs in SIMO cells ([1]; 0.001 nM to 1 µM): simultaneously activated SEAP production and suppressed the expression of Luciferase | SEAP ([1]; Fig5h, turn ON via AIR-1-GEMS, 0.001 nM): 19.8743 U/L and 19.5134 U/L and 15.1383 U/L | SEAP ([1]; Fig5h, turn ON via AIR-1-GEMS, 0.005 nM): 19.2907 U/L and 17.6338 U/L and 18.8337 U/L | SEAP ([1]; Fig5h, turn ON via AIR-1-GEMS, 0.01 nM): 18.6271 U/L and 21.8407 U/L and 37.1349 U/L | SEAP ([1]; Fig5h, turn ON via AIR-1-GEMS, 0.05 nM): 37.9776 U/L and 52.7802 U/L and 54.2278 U/L | SEAP ([1]; Fig5h, turn ON via AIR-1-GEMS, 0.1 nM): 39.7647 U/L and 50.8999 U/L and 76.4896 U/L | SEAP ([1]; Fig5h, turn ON via AIR-1-GEMS, 0.5 nM): 46.7816 U/L and 46.7958 U/L and 68.9342 U/L | SEAP ([1]; Fig5h, turn ON via AIR-1-GEMS, 1 nM): 36.1123 U/L and 44.1109 U/L and 47.7004 U/L | SEAP ([1]; Fig5h, turn ON via AIR-1-GEMS, 5 nM): 163.102 U/L and 218.766 U/L and 249.722 U/L | SEAP ([1]; Fig5h, turn ON via AIR-1-GEMS, 10 nM): 315.129 U/L and 324.74 U/L and 353.471 U/L | SEAP ([1]; Fig5h, turn ON via AIR-1-GEMS, 50 nM): 364.997 U/L and 306.053 U/L and 339.025 U/L | SEAP ([1]; Fig5h, turn ON via AIR-1-GEMS, 100 nM): 443.801 U/L and 453.931 U/L and 405.497 U/L | SEAP ([1]; Fig5h, turn ON via AIR-1-GEMS, 500 nM): 488.063 U/L and 432.803 U/L and 436.708 U/L | SEAP ([1]; Fig5h, turn ON via AIR-1-GEMS, 1000 nM): 411.613 U/L and 466.826 U/L and 364.664 U/L | Luciferase ([1]; Fig5h, via CDH-1-TF, 0.005 nM): 13170 and 13560 and 13671 | Luciferase ([1]; Fig5h, via CDH-1-TF, 0.01 nM): 14134 and 13430 and 12324 | Luciferase ([1]; Fig5h, via CDH-1-TF, 0.05 nM): 14625 and 13685 and 11174 | Luciferase ([1]; Fig5h, via CDH-1-TF, 0.5 nM): 10957 and 11915 and 9777 | Luciferase ([1]; Fig5h, via CDH-1-TF, 1 nM): 11394 and 11027 and 9891 | Luciferase ([1]; Fig5h, via CDH-1-TF, 5 nM): 9387 and 10202 and 8501 | Luciferase ([1]; Fig5h, via CDH-1-TF, 10 nM): 9897 and 9353 and 8698 | Luciferase ([1]; Fig5h, via CDH-1-TF, 50 nM): 8493 and 5450 and 4767 | Luciferase ([1]; Fig5h, via CDH-1-TF, 100 nM): 6159 and 4105 and 3304 | Luciferase ([1]; Fig5h, via CDH-1-TF, 500 nM): 6685 and 4541 and 3781 | Luciferase [1, 3]: 4.631 RLU and 4.974 RLU and 6.289 RLU | SEAP [1, 3]: 47563 U/L and 58731 U/L and 59991 U/L | SEAP ([1]; Fig S13i, CDH-1-TF control Luciferase expression only, Drug-1 0.1 nM): 53899 U/L and 50028 U/L and 61321 U/L | SEAP ([1]; Fig S13i, CDH-1-TF control Luciferase expression only, Drug-1 1 nM): 51520 U/L and 52067 U/L and 58888 U/L | SEAP ([1]; Fig S13i, CDH-1-TF control Luciferase expression only, Drug-1 3.16 nM): 43654 U/L and 44498 U/L and 55865 U/L | Luciferase [1, 4]: 5.35 RLU and 3.637 RLU and 4.7853 RLU | SEAP [1, 4]: 47243 U/L and 36047 U/L and 43911 U/L | Luciferase [1, 5]: 10.558 RLU and 9.125 RLU and 9.89 RLU | SEAP [1, 5]: 41739 U/L and 35234 U/L and 36053 U/L | Luciferase [1, 6]: 6.8735 RLU and 7.9639 RLU and 7.26 RLU | SEAP [1, 6]: 32885 U/L and 32749 U/L and 33680 U/L | Luciferase [1, 7]: 7.503 RLU and 9.5502 RLU and 5.763 RLU | SEAP [1, 7]: 36324 U/L and 29686 U/L and 32588 U/L | SEAP ([1]; Fig S13i, CDH-1-TF control Luciferase expression only, Drug-1 1000 nM): 22215 U/L and 22717 U/L and 21612 U/L | Luciferase [1, 8]: 7.197 RLU and 7.213 RLU and 7.2493 RLU | SEAP [1, 8]: 251 U/L and 231 U/L and 325 U/L | Luciferase [1, 9]: 7.338 RLU and 6.8 RLU and 5.088 RLU | SEAP [1, 9]: 201 U/L and 203 U/L and 381 U/L | Luciferase [1, 10]: 9.026 RLU and 10.0168 RLU | SEAP [1, 10]: 267 U/L and 249 U/L and 441 U/L | SEAP ([1]; Fig S13h, AIR-1-GEMS control SEAP expression only, Drug-1 3.16 nM): 363 U/L and 301 U/L and 409 U/L | SEAP ([1]; Fig S13h, AIR-1-GEMS control SEAP expression only, Drug-1 10 nM): 551 U/L and 601 U/L | SEAP ([1]; Fig S13h, AIR-1-GEMS control SEAP expression only, Drug-1 31.6 nM): 639 U/L and 579 U/L and 471 U/L | SEAP ([1]; Fig S13h, AIR-1-GEMS control SEAP expression only, Drug-1 100 nM): 421 U/L and 435 U/L and 441 U/L | Luciferase [1, 11]: 232.378 RLU and 215.546 RLU and 184.304 RLU | SEAP [1, 11]: 301 U/L and 339 U/L and 443 U/L | Luciferase ([1]; Fig S13h, AIR-1-GEMS control SEAP expression only, Drug-1 1000 nM): 239.146 RLU and 224.11 RLU and 201.76 RLU | Bottom (best-fit value) [1, 12]: 1591 | HillSlope (best-fit value) [1, 12]: -0.5534 | Span (best-fit value) [1, 12]: 8125 | Top (best-fit value) [1, 12]: 9717 | logIC50 (best-fit value) [1, 12]: 1.252 | IC50 ([1]; sheet Figure5h, Luciferase, four-parameter fit, read-out: IC50 (best-fit value)): 17.9 nM | Bottom (best-fit value) [1, 13]: 10.72 | HillSlope (best-fit value) [1, 13]: 0.8045 | Span (best-fit value) [1, 13]: 94.16 | Top (best-fit value) [1, 13]: 104.9 | logIC50 (best-fit value) [1, 13]: 1.797 | iBcl-XL_v3 response ([2]; Drug-1 0.001 nM): 174.876 and 175.206 and 177.174 | iBcl-XL_v3 response ([2]; Drug-1 0.01 nM): 215.202 and 222.394 and 221.188 | iBcl-XL_v3 response ([2]; Drug-1 0.05 nM): 207.736 and 204.171 and 203.036 | iBcl-XL_v3 response ([2]; Drug-1 0.1 nM): 189.507 and 193.343 and 194.134 | iBcl-XL_v3 response ([2]; Drug-1 0.5 nM): 204.985 and 206.922 and 206.979 | iBcl-XL_v3 response ([2]; Drug-1 1 nM): 184.864 and 185.609 and 186.635 | iBcl-XL_v3 response ([2]; Drug-1 10 nM): 194.117 and 193.916 and 200.456 | iBcl-XL_v3 response ([2]; Drug-1 50 nM): 193.965 and 195.069 and 198.505 | iBcl-XL_v3 response ([2]; Drug-1 100 nM): 183.254 and 186.244 and 183.907 | iBcl-XL_v3 response ([2]; Drug-1 500 nM): 165.059 and 166.616 and 165.103 | iBcl-XL_v3 response ([2]; Drug-1 1000 nM): 154.762 and 156.9 and 154.341 | IC50 ([2]; iBcl-XL_v3, best-fit, inhibitor vs. response (three parameters)): 705 nM | logIC50 ([2]; iBcl-XL_v3, best-fit, three parameters, Drug-1 in nM): 2.848
